Where two headings read alike, the source gives them in different places.
Biological target: T1, mGlyT-1b (Mus musculus, UniProt P28571)
T1 construct: host or cells: Flp-in-CHO
T1 sequence (P28571 1-651 isoform P28571-2): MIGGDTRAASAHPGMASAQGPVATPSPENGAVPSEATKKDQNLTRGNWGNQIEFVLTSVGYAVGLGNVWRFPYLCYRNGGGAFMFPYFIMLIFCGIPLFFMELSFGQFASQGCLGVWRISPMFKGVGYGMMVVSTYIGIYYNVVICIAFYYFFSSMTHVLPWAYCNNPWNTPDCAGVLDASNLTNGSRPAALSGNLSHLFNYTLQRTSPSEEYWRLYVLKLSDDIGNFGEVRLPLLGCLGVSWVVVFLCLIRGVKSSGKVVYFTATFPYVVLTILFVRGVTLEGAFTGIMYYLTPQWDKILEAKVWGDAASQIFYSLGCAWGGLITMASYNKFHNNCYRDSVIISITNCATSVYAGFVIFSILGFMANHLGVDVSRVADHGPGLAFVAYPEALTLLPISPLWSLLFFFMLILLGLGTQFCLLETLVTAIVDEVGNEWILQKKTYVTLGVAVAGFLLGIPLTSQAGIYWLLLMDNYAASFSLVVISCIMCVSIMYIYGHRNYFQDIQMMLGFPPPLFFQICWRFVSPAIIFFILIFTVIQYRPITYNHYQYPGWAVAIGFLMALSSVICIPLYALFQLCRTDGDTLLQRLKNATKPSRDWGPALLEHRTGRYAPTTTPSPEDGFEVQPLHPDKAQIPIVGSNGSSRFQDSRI
Test: Glycine Uptake Inhibition Assay (mGlyT-1b)
Assay type: cell-based

Structure (SMILES) | IC50 (IC50 data) [nM] | also measured
CCc1cc(C(F)(F)F)ccc1C(=O)N[C@H]1CCC[C@H]1NC1CCCC1 (racemic) [Example 89, cis-N-(2-Cyclopentylamino-cyclopentyl)-2-ethyl-4-trifluoromethyl-benzamide] | – | IC50 (read-out: IC50 data): 79.4 nM
COc1cc(C(F)(F)F)cc(C2CC2)c1C(=O)N[C@H]1CCC[C@H]1N1CCCC1 (relative stereo) [Example 131, 2-Cyclopropyl-6-methoxy-N-((cis)-2-pyrrolidin-1-yl-cyclopentyl)-4 trifluoromethyl-benzamide] | 19.9 | –
O=C(NC1CCCC1N1CCCC1)c1c(C2CC2)cc(C(F)(F)F)cc1C(F)(F)F (single isomer, unassigned; (-)) [Example 138, (−)-2-Cyclopropyl-N-((1R,2, or 1S,2R)-2-pyrrolidin-1-yl-cyclopentyl)-4,6-bis-trifluoromethyl-benzamide] | 67.9 | –
CCc1cc(C(F)(F)F)ccc1C(=O)N[C@H]1CCC[C@H]1NC1CCCC1 (single isomer, unassigned) [Example 92, (+)-N-(2-Cyclopentylamino-cyclopentyl)-2-ethyl-4-trifluoromethyl-benzamide] | – | IC50 (read-out: IC50 data): 95.4 nM
O=C(N[C@H]1CCC[C@H]1N1CCCC1)c1ccc(C(F)(F)F)cc1C1CC1 (racemic) [Example 91, 2-Cyclopropyl-cis-N-(2-pyrrolidin-1-yl-cyclopentyl)-4-trifluoromethyl-benzamide] | 45.3 | –
Cc1cc(C(F)(F)F)cc(C)c1C(=O)N[C@H]1CCC[C@H]1N1CCCC1 (relative stereo) [Example 132, 2,6-Dimethyl-N-((cis)-2-pyrrolidin-1-yl-cyclopentyl)-4-trifluoromethyl-benzamide] | 36.5 | –
COc1cc(C(F)(F)F)cc(SC)c1C(=O)N[C@@H]1CCC[C@@H]1N1CCCC1 (racemic) [Example 55, 2-Methoxy-6-methylsulfanyl-N-((1RS,2SR)-2-pyrrolidin-1-yl-cyclopentyl)-4-trifluoromethyl-benzamide] | 84.6 | –
O=C(N[C@H]1CCC[C@H]1N1CCCC1)c1c(F)cc(C(F)(F)F)cc1C(F)(F)F (relative stereo) [Example 105, cis-2-Fluoro-N-(2-pyrrolidin-1-yl-cyclopentyl)-4,6-bis-trifluoromethyl-benzamide] | 75.1 | –
O=C(NC1CCCC1N1CCCC1)c1ccc(C(F)(F)F)cc1C1CC1 (single isomer, unassigned; (+)) [Example 97, (+)-2-Cyclopropyl-N-cis-(-2-pyrrolidin-1-yl-cyclopentyl)-4-trifluoromethyl-benzamide] | 82.4 | –
COc1cc(C(F)(F)F)cc(Br)c1C(=O)NC1CCCC1N1CCCC1 (single isomer, unassigned; (-)) [Example 114, (−)-2-Bromo-6-methoxy-N-cis-(2-pyrrolidin-1-yl-cyclopentyl)-4-trifluoromethyl-benzamide] | 66.8 | –
CCc1cccc(C)c1C(=O)N[C@H]1CCC[C@H]1N1CCCC1 (relative stereo) [Example 94, cis-2-Ethyl-6-methyl-N-(2-pyrrolidin-1-yl-cyclopentyl)-benzamide] | 98.4 | –
COc1cc(C(F)(F)F)cc(SC)c1C(=O)N[C@@H]1CCC[C@@H]1NC1CCCC1 (racemic) [Example 65, N-((1RS,2SR)-2-Cyclopentylamino-cyclopentyl)-2-methoxy-6-methylsulfanyl-4-trifluoromethyl-benzamide] | – | IC50 (read-out: IC50 data): 56.4 nM
CCc1cc(C(F)(F)F)cc(OC)c1C(=O)N[C@H]1CCC[C@H]1N1CCCC1 (relative stereo) [Example 140, 2-Ethyl-6-methoxy-N-((cis)-2-pyrrolidin-1-yl-cyclopentyl)-4-trifluoromethyl-benzamide] | 55.4 | –
CCc1cc(C(F)(F)F)ccc1C(=O)N[C@H]1CCC[C@H]1N1CCCC1 (relative stereo) [Example 80, cis-2-Ethyl-N-(2-pyrrolidin-1-yl-cyclopentyl)-4-trifluoromethyl-benzamide] | 89.6 | –
CCc1cccc(C2CC2)c1C(=O)N[C@H]1CCC[C@H]1N1CCCC1 (racemic) [Example 98, cis-2-Cyclopropyl-6-ethyl-N-(2-pyrrolidin-1-yl-cyclopentyl)-benzamide] | 80.1 | –
O=C(N[C@@H]1CCC[C@@H]1N1CCCC1)c1c(F)cc(C(F)(F)F)cc1C(F)(F)F (single isomer, unassigned) [Example 126, (−)-cis-2-Fluoro-N-(2-pyrrolidin-1-yl-cyclopentyl)-4,6-bis-trifluoromethyl-benzamide] | 74 | –

Structure (SMILES) | IC50 (IC50 data) [nM] | also measured
CCc1cccc(C2CC2)c1C(=O)N[C@@H]1CCC[C@@H]1N1CCCC1 (single isomer, unassigned) [Example 121, (+)-cis-2-Cyclopropyl-6-ethyl-N-(2-pyrrolidin-1-yl-cyclopentyl)-benzamide] | 36.1 | –
CCc1cc(C(F)(F)F)cc(C(F)(F)F)c1C(=O)N[C@H]1CCC[C@H]1N1CCCC1 (single isomer, unassigned) [Example 141, (+)-2-Ethyl-N-(2-pyrrolidin-1-yl-cyclopentyl)-4,6-bis-trifluoromethyl-benzamide] | 43.5 | –
O=C(N[C@H]1CCC[C@H]1NC1CCCC1)c1ccc(C(F)(F)F)cc1C1CC1 (racemic) [Example 102, N-((1SR,2RS)-2-Cyclopentylamino-cyclopentyl)-2-cyclopropyl-4-trifluoromethyl-benzamide] | – | IC50 (read-out: IC50 data): 35.1 nM
CSc1cc(C(F)(F)F)ccc1C(=O)N[C@@H]1CCC[C@@H]1N1CCCC1 (single isomer, unassigned) [Example 85, (−)-2-Methylsulfanyl-N-(2-pyrrolidin-1-yl-cyclopentyl)-4-trifluoromethyl-benzamide] | 60.4 | –
COc1cc(C(F)(F)F)cc(SC)c1C(=O)N[C@@H]1CCC[C@@H]1NC1CCC1 (racemic) [Example 61, N-((1RS,2SR)-2-Cyclobutylamino-cyclopentyl)-2-methoxy-6-methylsulfanyl-4-trifluoromethyl-benzamide] | – | IC50 (read-out: IC50 data): 65.9 nM
COc1cc(C(F)(F)F)cc(SC)c1C(=O)N[C@H]1CCC[C@H]1NC1CCCC1 (single isomer, unassigned) [Example 68, (−)-N-(2-Cyclopentylamino-cyclopentyl)-2-methoxy-6-methylsulfanyl-4-trifluoromethyl-benzamide] | – | IC50 (read-out: IC50 data): 19.4 nM
O=C(NC1CCCC1N1CCCC1)c1c(C2CC2)cc(C(F)(F)F)cc1C(F)(F)F (single isomer, unassigned; (+)) [Example 139, (+)-2-Cyclopropyl-N-((1R,2S or 1S,2R)-2-pyrrolidin-1-yl-cyclopentyl)-4,6-bis-trifluoromethyl-benzamide] | 32.5 | –
COc1cc(C(F)(F)F)cc(OC(F)F)c1C(=O)N[C@H]1CCC[C@H]1N1CCCC1 (relative stereo) [Example 133, 2-Difluoromethoxy-6-methoxy-N-((cis)-2-pyrrolidin-1-yl-cyclopentyl)-4-trifluoromethyl-benzamide] | 90.8 | –
COc1cc(C(F)(F)F)cc(Br)c1C(=O)NC1CCCC1N1CCCC1 (single isomer, unassigned; (+)) [Example 115, (+)-2-Bromo-6-methoxy-N-cis-(2-pyrrolidin-1-yl-cyclopentyl)-4-trifluoromethyl-benzamide] | 71.4 | –
CCc1cc(C(F)(F)F)cc(C(F)(F)F)c1C(=O)NC1CCCC1N1CCCC1 (single isomer, unassigned) [Example 142] | 68 | –
O=C(NC1CCCC1N1CCCC1)c1c(Cl)cc(C(F)(F)F)cc1Cl (single isomer, unassigned; (-)) [Example 129, (−)-2,6-Dichloro-N-cis-(2-pyrrolidin-1-yl-cyclopentyl)-4-trifluoromethyl-benzamide] | 64.5 | –
CSc1cc(C(F)(F)F)cc(C(F)(F)F)c1C(=O)N[C@H]1CCC[C@H]1NC1CCCC1 (racemic) [Example 134, N-((cis)-2-Cyclopentylamino-cyclopentyl)-2-methylsulfanyl-4,6-bis-trifluoromethyl-benzamide] | – | IC50 ([3H]-glycine uptake, Flp-in-CHO cells transfected with mGlyT-1b cDNA, 20 min preincubation at 22° C., read-out: IC50 data): 95.7 nM
O=C(NC1CCCC1N1CCCC1)c1ccc(C(F)(F)F)cc1C1CC1 (single isomer, unassigned) [Example 96, (+2-Cyclopropyl-N-cis-(-2-pyrrolidin-1-yl-cyclopentyl)-4-trifluoromethyl-benzamide] | 42.8 | –
O=C(N[C@H]1CCC[C@H]1N1CCCC1)c1c(C2CC2)cc(C(F)(F)F)cc1C(F)(F)F (relative stereo) [Example 130, 2-Cyclopropyl-N-((cis)-2-pyrrolidin-1-yl-cyclopentyl)-4,6-bis-trifluoromethyl-benzamide] | 35.4 | –
O=C(N[C@H]1CCC[C@H]1N1CCCC1)c1c(Cl)cc(C(F)(F)F)cc1Cl (relative stereo) [Example 108, cis-2,6-Dichloro-N-(2-pyrrolidin-1-yl-cyclopentyl)-4-trifluoromethyl-benzamide] | 88.2 | –
COc1cc(C(F)(F)F)cc(Br)c1C(=O)N[C@H]1CCC[C@H]1N1CCCC1 (racemic) [Example 101, 2-Bromo-6-methoxy-N-cis-(2-pyrrolidin-1-yl-cyclopentyl)-4-trifluoromethyl-benzamide] | 94.8 | –
